Laboratory results as given in ChEMBL document CHEMBL3580659, “One-pot multicomponent synthesis of indole incorporated thiazolylcoumarins and their antibacterial, anticancer and DNA cleavage studies” (2015).

Columns and labels:
Format in all cases: functional
UACC-62 [1] = test: Cytotoxicity against human UACC62 cells assessed as cell growth level at 10 nM after 48 hrs by sulforhodamine B assay
ACHN [2] = test: Cytotoxicity against human ACHN cells assessed as cell growth level at 10 uM after 48 hrs by sulforhodamine B assay
MDA-MB-435 = test: Cytotoxicity against human MDA-MB-435 cells assessed as cell growth level at 10 uM after 48 hrs by sulforhodamine B assay
UACC-257 = test: Cytotoxicity against human UACC257 cells assessed as cell growth level at 1 uM after 48 hrs by sulforhodamine B assay
CAKI-1 = test: Cytotoxicity against human CAKI-1 cells assessed as cell growth level at 100 uM after 48 hrs by sulforhodamine B assay
KM12 = test: Cytotoxicity against human KM12 cells after 48 hrs by sulforhodamine B assay; settings: KM12, 48 h
SF-539 = test: Cytotoxicity against human SF539 cells assessed as cell growth level at 100 uM after 48 hrs by sulforhodamine B assay
NCI-H226 [3] = test: Cytotoxicity against human NCI-H226 cells assessed as cell growth level at 100 uM after 48 hrs by sulforhodamine B assay
RPMI-8226 = test: Cytotoxicity against human RPMI8226 cells assessed as cell growth level at 10 nM after 48 hrs by sulforhodamine B assay
SN12C = test: Cytotoxicity against human SN12C cells assessed as cell growth level at 100 nM after 48 hrs by sulforhodamine B assay
RXF 393 = test: Cytotoxicity against human RXF393 cells after 48 hrs by sulforhodamine B assay; settings: RXF 393, 48 h
M14 = test: Cytotoxicity against human M14 cells assessed as cell growth level at 100 nM after 48 hrs by sulforhodamine B assay
OVCAR-4 = test: Cytotoxicity against human OVCAR4 cells assessed as cell growth level at 10 uM after 48 hrs by sulforhodamine B assay
COLO 205 = test: Cytotoxicity against human COLO205 cells assessed as cell growth level at 10 uM after 48 hrs by sulforhodamine B assay
SNB-75 = test: Cytotoxicity against human SNB75 cells assessed as cell growth level at 1 uM after 48 hrs by sulforhodamine B assay
MDA-MB-231 [4] = test: Cytotoxicity against human MDA-MB-231/ATCC cells assessed as cell growth level at 10 nM after 48 hrs by sulforhodamine B assay
NCI-H460 = test: Cytotoxicity against human NCI-H460 cells assessed as cell growth level at 1 uM after 48 hrs by sulforhodamine B assay
NCI-H226 [5] = test: Cytotoxicity against human NCI-H226 cells assessed as cell growth level at 100 nM after 48 hrs by sulforhodamine B assay
OVCAR-8 = test: Cytotoxicity against human OVCAR8 cells assessed as cell growth level at 10 uM after 48 hrs by sulforhodamine B assay
SF-268 = test: Cytotoxicity against human SF268 cells after 48 hrs by sulforhodamine B assay; settings: SF-268, 48 h
OVCAR-3 [6] = test: Cytotoxicity against human OVCAR3 cells assessed as cell growth level at 100 uM after 48 hrs by sulforhodamine B assay
DU-145 = test: Cytotoxicity against human DU145 cells after 48 hrs by sulforhodamine B assay; settings: DU-145, 48 h
MDA-MB-231 [7] = test: Cytotoxicity against human MDA-MB-231/ATCC cells after 48 hrs by sulforhodamine B assay; settings: MDA-MB-231, 48 h
UACC-62 [8] = test: Cytotoxicity against human UACC62 cells assessed as cell growth level at 100 uM after 48 hrs by sulforhodamine B assay
IGROV-1 = test: Cytotoxicity against human IGROV1 cells assessed as cell growth level at 10 uM after 48 hrs by sulforhodamine B assay
786-0 = test: Cytotoxicity against human 786-0 cells assessed as cell growth level at 1 uM after 48 hrs by sulforhodamine B assay
HT-29 = test: Cytotoxicity against human HT-29 cells assessed as cell growth level at 10 uM after 48 hrs by sulforhodamine B assay
A498 = test: Cytotoxicity against human A498 cells assessed as cell growth level at 10 uM after 48 hrs by sulforhodamine B assay
CCRF-CEM = test: Cytotoxicity against human CCRF-CEM cells assessed as cell growth level at 100 uM after 48 hrs by sulforhodamine B assay
LOX IMVI = test: Cytotoxicity against human LOXIMVI cells assessed as cell growth level at 10 nM after 48 hrs by sulforhodamine B assay
OVCAR-5 [9] = test: Cytotoxicity against human OVCAR5 cells after 48 hrs by sulforhodamine B assay; settings: OVCAR-5, 48 h
OVCAR-5 [10] = test: Cytotoxicity against human OVCAR5 cells assessed as cell growth level at 1 uM after 48 hrs by sulforhodamine B assay
T47D = test: Cytotoxicity against human T47D cells assessed as cell growth level at 10 uM after 48 hrs by sulforhodamine B assay
UACC-62 [11] = test: Cytotoxicity against human UACC62 cells assessed as cell growth level at 1 uM after 48 hrs by sulforhodamine B assay
ACHN [12] = test: Cytotoxicity against human ACHN cells assessed as cell growth level at 100 nM after 48 hrs by sulforhodamine B assay
OVCAR-3 [13] = test: Cytotoxicity against human OVCAR3 cells assessed as cell growth level at 10 nM after 48 hrs by sulforhodamine B assay
MDA-MB-231 [14] = test: Cytotoxicity against human MDA-MB-231/ATCC cells assessed as cell growth level at 100 uM after 48 hrs by sulforhodamine B assay
[15] = read-out: LC50 (the source's name)
[16] = read-out: pLC50 (the source's name) (converted)

In the case of `O=c1oc2ccccc2cc1-c1csc(N/N=C/c2c[nH]c3ccccc23)n1`, the Activity (UACC-62 [1]) is reported as 95%, the Activity (ACHN [2]) is reported as 10.07% and the Activity (MDA-MB-435) is reported as 22.44%. For the same molecule, the Activity (UACC-257) was 82%, the Activity (CAKI-1) was -57% and the GI50 (KM12; read-out: GI50) was 1.86 µM. It also gave a CC50 (KM12; [15]) of 9.22 µM, a TGI (KM12; read-out: TGI) of 4.14 µM and a GI50 (KM12; read-out: pGI50 (converted)) of 1.86 µM. It also gave a CC50 (KM12; [16]) of 9.12 µM, a TGI (KM12; read-out: pTGI (converted)) of 4.17 µM and an Activity (SF-539) of -4%. For the same molecule, the Activity (NCI-H226 [3]) was -31%, the Activity (RPMI-8226) was 99% and the Activity (SN12C) was 90%. The GI50 (RXF 393; read-out: GI50) was 1.97 µM, the CC50 (RXF 393; [15]) was 33.9 µM and the TGI (RXF 393; read-out: TGI) was 4.77 µM. For the same molecule, the GI50 (RXF 393; read-out: pGI50 (converted)) was 1.95 µM, the CC50 (RXF 393; [16]) was 33.9 µM and the TGI (RXF 393; read-out: pTGI (converted)) was 4.79 µM. For the same molecule, the Activity (M14) was 92%, the Activity (OVCAR-4) was -4.09% and the Activity (COLO 205) was 28.15%. The Activity (SNB-75) was 74%, the Activity (MDA-MB-231 [4]) was 97% and the Activity (NCI-H460) was 52%. It also gave an Activity (NCI-H226 [5]) of 104%, an Activity (OVCAR-8) of 2.99% and a GI50 (SF-268; read-out: GI50) of 1.93 µM. It also gave a CC50 (SF-268; [15]) greater than 100 µM, a TGI (SF-268; read-out: TGI) of 8.77 µM and a GI50 (SF-268; read-out: pGI50 (converted)) of 1.95 µM. For the same molecule, the CC50 (SF-268; [16]) was greater than 100 µM, the TGI (SF-268; read-out: pTGI (converted)) was 8.71 µM and the Activity (OVCAR-3 [6]) was -2%. It also gave a GI50 (DU-145; read-out: GI50) of 1.8 µM, a CC50 (DU-145; [15]) greater than 100 µM and a TGI (DU-145; read-out: TGI) of 4.27 µM. It also gave a GI50 (DU-145; read-out: pGI50 (converted)) of 1.82 µM, a CC50 (DU-145; [16]) greater than 100 µM and a TGI (DU-145; read-out: pTGI (converted)) of 4.27 µM. It also gave a GI50 (MDA-MB-231 [7]; read-out: GI50) of 1.39 µM, a CC50 (MDA-MB-231 [7]; [15]) of 7.94 µM and a TGI (MDA-MB-231 [7]; read-out: TGI) of 3.33 µM. It also gave a GI50 (MDA-MB-231 [7]; read-out: pGI50 (converted)) of 1.38 µM, a CC50 (MDA-MB-231 [7]; [16]) of 7.94 µM and a TGI (MDA-MB-231 [7]; read-out: pTGI (converted)) of 3.31 µM. The Activity (UACC-62 [8]) was -27%, the Activity (IGROV-1) was 0.26% and the Activity (786-0) was 80%. For the same molecule, the Activity (HT-29) was 32.14%, the Activity (A498) was 6.72% and the Activity (CCRF-CEM) was -39%. For the same molecule, the Activity (LOX IMVI) was 91%, the GI50 (OVCAR-5 [9]; read-out: GI50) was 2.34 µM and the CC50 (OVCAR-5 [9]; [15]) was greater than 100 µM. For the same molecule, the TGI (OVCAR-5 [9]; read-out: TGI) was 7.8 µM, the GI50 (OVCAR-5 [9]; read-out: pGI50 (converted)) was 2.34 µM and the CC50 (OVCAR-5 [9]; [16]) was greater than 100 µM. For the same molecule, the TGI (OVCAR-5 [9]; read-out: pTGI (converted)) was 7.76 µM, the Activity (OVCAR-5 [10]) was 87% and the Activity (T47D) was 4.07%. For the same molecule, the Activity (UACC-62 [11]) was 69%, the Activity (ACHN [12]) was 97% and the Activity (OVCAR-3 [13]) was 99%. For the same molecule, the Activity (MDA-MB-231 [14]) was -3%.
